Source: US10479814B2, “Adenosine receptor activation reagent and the uses of thereof” (Zhejiang Subtropical Crops Research Institute, priority 2014, dated 2019)
Entries after “also recorded” stand apart in the source; their conditions may differ.

What was measured:
Assay type in all cases: in vivo
[1] = test system: mouse kidney ischemia reperfusion; assay: kidney ischemia reperfusion: kidney histopathologic examination (HE); conditions: vs IR group, DPCPX 1 mg/kg; for renal tubulointerstitial impairment score: P<0.01, HEA 5, 7.5, 10 mg/kg, DPCPX 1 mg/kg+HEA 5 or 7.5 mg/kg; for kidney histopathological changes (HE×400): HEA groups printed as 2.5, 5, 7.5 mg/kg, DPCPX+HEA 5 or 7.5 mg/kg
Method: Male C57BL/6 mice 20-25 g, after one week of adaptive feeding to the animals, were randomly divided into eight groups: sham-operation group, IR group, HEA 5 mg/kg group, HEA 7 mg/kg group, HEA 10 mg/kg group, DPCPX (1 mg/kg) group, DPCPX (1 mg/kg)+HEA (5 mg/kg) group and DPCPX (1 mg/kg)+HEA (7.5 mg/kg) group. The mouse was weighed before operation, then peritoneally injected with pentobarbital sodium 50 mg/kg to anaesthetize the mouse, abdomen was opened by ventromedial incision, blunt dissection and the kidney pedicle was sufficiently exposed, renal ischemia was induced by clapping two side kidney pedicle with non-invasive bulldog clamp, the color of kidney change from bright red to purple black immediately, determination method of success of the experiment model can refer to the methods in literature 7 and 8. At time of 30 min of ischemia the bulldog clamp was loosened, the perfuse was restored, the color of kidney changed gradually from dark red to bright red, showing re perfusion was successful. The wound was stitched. The animals were freely fed water and food. In the sham-operation group, the mice only received operation of abdomen open, kidney pedicle and abdomen suture. The kidney IR mode were made for the mice in the remaining groups. In each drug group, before 15 minute of ischemia, the drug with corresponding concentration was speritoneally injected, in drug combination group, 15 minutes before ischemia, the drugs were given simultaneously. At 24 hours after reperfusion, the mouse was anaesthetized again, the kidney specimen was obtained. The kidney specimen is fixed by 10% formaldehyde solution, paraffin embedded, sectioned, hematoxylin-eosin staining (HE), and the kidney histopathological change was observed under optical microscope.

[2] = test system: mouse kidney ischemia reperfusion; assay: kidney ischemia reperfusion: apoptosis by TUNEL method; conditions: vs IR group, DPCPX 1 mg/kg; for renal tubular epithelial cell apoptosis number (TUNEL×400): HEA treated group, DPCPX+HEA
Method: Male C57BL/6 mice 20-25 g, after one week of adaptive feeding to the animals, were randomly divided into eight groups: sham-operation group, IR group, HEA 5 mg/kg group, HEA 7 mg/kg group, HEA 10 mg/kg group, DPCPX (1 mg/kg) group, DPCPX (1 mg/kg)+HEA (5 mg/kg) group and DPCPX (1 mg/kg)+HEA (7.5 mg/kg) group.
The mouse was weighed before operation, then peritoneally injected with pentobarbital sodium 50 mg/kg to anaesthetize the mouse, abdomen was opened by ventromedial incision, blunt dissection and the kidney pedicle was sufficiently exposed, renal ischemia was induced by clapping two side kidney pedicle with non-invasive bulldog clamp, the color of kidney change from bright red to purple black immediately, determination method of success of the experiment model can refer to the methods in literature 7 and 8. At time of 30 min of ischemia the bulldog clamp was loosened, the perfuse was restored, the color of kidney changed gradually from dark red to bright red, showing re perfusion was successful. The wound was stitched. The animals were freely fed water and food.
In the sham-operation group, the mice only received operation of abdomen open, kidney pedicle and abdomen suture. The kidney IR mode were made for the mice in the remaining groups. In each drug group, before 15 minute of ischemia, the drug with corresponding concentration was speritoneally injected, in drug combination group, 15 minutes before ischemia, the drugs were given simultaneously.
Fetching a part of the stored kidney tissue, conventional paraffin embedded 4 μm of section. Operate according to the method of the specification in kit. […] Randomly selecting 10 400-fold visual fields, calculate apoptosis index AI %=positive cell number/total number of all cell in the visual field×100%.

[3] = test system: pentylenetetrazole induced convulsion; assay: pentylenetetrazole induced convulsion in mouse
Method: Male ICR mouse, 18˜22 g; purchased from Animal Experiment Center of Wenzhou Medical University. Before experiment, animals were adapted to environment for at least 5 days. Kept at 25 °C, food and water were freely fed. Based on the weight, the healthy male ICR mice were randomly divided into control group (1% DMSO, ip), model group, CCPA group (0.1 mg·kg^−1, ip), HEA group (15 mg/kg, 40 mg/kg, 60 mg/kg), DPCPX group (2 mg·kg^−1, ip), ZM241385 group (1 mg·kg^−1, 5 mg·kg^−1, ip), DPCPX+HEA (2 mg·kg^−1+40 mg/kg, ip) group and ZM241385+HEA (1 mg·kg^−1+40 mg/kg, 5 mg·kg^−1+40 mg/kg ip) group.
The survival time and mortality after convulsion were respectively recorded for each group.

[4] = test system: ICAM-1 mRNA in mouse renal cortex; assay: kidney ischemia reperfusion: real time quantitative PCR of ICAM-1; conditions: vs IR group; HEA 5, 7.5, 10 mg/kg; DPCPX 1 mg/kg; DPCPX 1 mg/kg+HEA
Method: Male C57BL/6 mice 20-25 g, after one week of adaptive feeding to the animals, were randomly divided into eight groups: sham-operation group, IR group, HEA 5 mg/kg group, HEA 7 mg/kg group, HEA 10 mg/kg group, DPCPX (1 mg/kg) group, DPCPX (1 mg/kg)+HEA (5 mg/kg) group and DPCPX (1 mg/kg)+HEA (7.5 mg/kg) group. […]
The MPO analysis was conducted according to the specification in the kit. 9.2.6 Real time quantitative PCR analysis of gene expression of ICAM-1, TNF-α and IL-1β; the sequence of primer used in RT-PCR reaction system is as follow:
PCR amplification reaction system: IQ SYBR Green Super mix 12.5 μL, Forward primer (10 μmo/L) 1 μL, Reverse primer (10 μmol/L) 1 μL, cDNA (water was added to dilute to same level) 10.5 μL. […] The statistics and calculation of experiment results was automatically conducted fluorescence quantitative PCR analyzing software BIO-RAD CFX Manager. Target gene mRNA expression level was calculated by 2-ΔΔCt method, and standardized using the GAPDH mRNA in corresponding specimen a standard.

For `OCCNc1ncnc2c1ncn2[C@@H]1O[C@H](CO)[C@@H](O)[C@H]1O` [HEA, N(6)-(2-hydroxyethyl)-adenosine], the “renal tubulointerstitial impairment score” value [1] was “significantly reduced”, the “kidney histopathological changes (HE×400)” value [1] was “significantly reduced compared with IR group” and the TUNEL apoptosis index ([2]; P<0.01, HEA 5, 7.5, 10 mg/kg, DPCPX 1 mg/kg+HEA 5 or 7.5 mg/kg) was “significantly less than IR group”. For the same molecule, the “renal tubular epithelial cell apoptosis number (TUNEL×400)” value [2] was “apoptosis number is reduced”, the “survival time after convulsion” value ([3]; HEA 40 mg/kg ip, pentylenetetrazole 100 mg/kg ip, vs control group) was “significantly extend the survival time” and the “mortality of mouse convulsion” value ([3]; HEA 40 mg/kg, pentylenetetrazole 100 mg/kg ip) was “very significantly reduce the mortality”. The “ICAM-1 mRNA expression in renal cortex” value [4] was “significantly reduce the high expression”.

In the case of `CCCn1c(=O)c2[nH]c(C3CCCC3)nc2n(CCC)c1=O` [DPCPX, reference compound], the “renal tubulointerstitial impairment score” value [1] is reported as “significantly increase renal tubulointerstitial impairment scores”, the “kidney histopathological changes (HE×400)” value [1] is reported as “aggravate tissue necrosis” and the “renal tubular epithelial cell apoptosis number (TUNEL×400)” value [2] is reported as “significantly increased”. The “effect of antagonist on the anti-convulsion action of the HEA” value ([3]; antagonist ip 10 min before HEA 40 mg/kg, DPCPX 2 mg/kg, ZM241385 1 and 5 mg/kg) was “significantly inhibit the anti-convulsion effect of the HEA; also recorded: significantly reduce the anti-convulsion effect of the HEA” and the “ICAM-1 mRNA expression in renal cortex” value [4] was “not statistically significant”.
